Reference: the kinase profiling compilation of Christmann-Franck et al. (2016)

How the values were obtained:
Assay in all cases: radiometric filter-binding kinase assay
AURKA (human) = AURKA (human) (UniProt O14965)
BRSK2 (human) = BRSK2 (human) (UniProt Q8IWQ3)
CDK2 CCNA2 (human) = CDK2 CCNA2 (human) (UniProt P20248+P24941)
CHEK1 (human) = CHEK1 (human) (UniProt O14757)
CHEK2 (human) = CHEK2 (human) (UniProt O96017)
CLK2 (human) = CLK2 (human) (UniProt P49760)
DAPK1 (human) = DAPK1 (human) (UniProt P53355)
EEF2K (human) = EEF2K (human) (UniProt O00418)
EPHB4 (human) = EPHB4 (human) (UniProt P54760)
ERBB4 (human) = ERBB4 (human) (UniProt Q15303)
FLT1 (human) = FLT1 (human) (UniProt P17948)
GCK (human) = GCK (human) (UniProt Q12851)
HIPK1 (human) = HIPK1 (human) (UniProt Q86Z02)
HIPK3 (human) = HIPK3 (human) (UniProt Q9H422)
JAK2 JH1 JH2 (human) = JAK2 JH1 JH2 (human) (UniProt O60674)
MAPK1 (human) = MAPK1 (human) (UniProt P28482)
MAPK3 (human) = MAPK3 (human) (UniProt P27361)
MARK3 (human) = MARK3 (human) (UniProt P27448)
MARK4 (human) = MARK4 (human) (UniProt Q96L34)
MST4 (human) = MST4 (human) (UniProt Q9P289)
NTRK1 (human) = NTRK1 (human) (UniProt P04629)
PAK6 (human) = PAK6 (human) (UniProt Q9NQU5)
PLK1 (human) = PLK1 (human) (UniProt P53350)
PRKCA (human) = PRKCA (human) (UniProt P17252)
PRKCZ (human) = PRKCZ (human) (UniProt Q05513)
RPS6KA1 KD1 KD2 (human) = RPS6KA1 KD1 KD2 (human) (UniProt Q15418)
RPS6KA3 KD1 KD2 (human) = RPS6KA3 KD1 KD2 (human) (UniProt P51812)
RPS6KA5 KD1 KD2 (human) = RPS6KA5 KD1 KD2 (human) (UniProt O75582)
[1] = tested on: SGK1 (human), O00141 [S422D]; conditions: compound 10.0 µM
STK3 (human) = STK3 (human) (UniProt Q13188)
TAOK1 (human) = TAOK1 (human) (UniProt Q7L7X3)
MAP3K5 (human) = MAP3K5 (human) (UniProt Q99683)
NUAK1 (human) = NUAK1 (human) (UniProt O60285)
SRC (human) = SRC (human) (UniProt P12931)

EPHB4 (human), sequence (P54760 whole entry, looked up): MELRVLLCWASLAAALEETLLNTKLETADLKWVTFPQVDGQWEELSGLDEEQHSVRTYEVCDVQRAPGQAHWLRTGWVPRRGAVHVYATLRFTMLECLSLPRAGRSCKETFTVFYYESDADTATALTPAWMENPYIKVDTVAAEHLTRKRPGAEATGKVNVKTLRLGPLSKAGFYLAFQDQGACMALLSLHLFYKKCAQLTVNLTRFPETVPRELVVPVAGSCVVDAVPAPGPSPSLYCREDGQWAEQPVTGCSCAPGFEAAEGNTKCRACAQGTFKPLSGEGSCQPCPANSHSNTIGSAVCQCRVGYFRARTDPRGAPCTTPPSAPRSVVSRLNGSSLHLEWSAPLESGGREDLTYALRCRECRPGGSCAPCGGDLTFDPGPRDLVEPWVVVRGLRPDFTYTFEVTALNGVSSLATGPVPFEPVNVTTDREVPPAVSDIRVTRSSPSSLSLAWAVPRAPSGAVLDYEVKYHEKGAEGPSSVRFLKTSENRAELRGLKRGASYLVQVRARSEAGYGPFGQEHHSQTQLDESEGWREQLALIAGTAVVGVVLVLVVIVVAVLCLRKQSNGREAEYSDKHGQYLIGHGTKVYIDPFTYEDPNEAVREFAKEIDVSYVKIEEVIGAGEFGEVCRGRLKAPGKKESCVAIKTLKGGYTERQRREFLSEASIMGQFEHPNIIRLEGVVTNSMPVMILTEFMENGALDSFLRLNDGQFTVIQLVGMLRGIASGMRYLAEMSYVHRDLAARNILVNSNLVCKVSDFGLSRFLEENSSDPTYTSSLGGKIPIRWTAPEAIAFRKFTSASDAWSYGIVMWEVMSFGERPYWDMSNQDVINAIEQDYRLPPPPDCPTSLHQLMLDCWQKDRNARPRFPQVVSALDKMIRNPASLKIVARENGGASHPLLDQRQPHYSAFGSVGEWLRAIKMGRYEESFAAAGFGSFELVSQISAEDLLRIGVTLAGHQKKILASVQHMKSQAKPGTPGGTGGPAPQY
CLK2 (human), sequence (P49760 whole entry, looked up): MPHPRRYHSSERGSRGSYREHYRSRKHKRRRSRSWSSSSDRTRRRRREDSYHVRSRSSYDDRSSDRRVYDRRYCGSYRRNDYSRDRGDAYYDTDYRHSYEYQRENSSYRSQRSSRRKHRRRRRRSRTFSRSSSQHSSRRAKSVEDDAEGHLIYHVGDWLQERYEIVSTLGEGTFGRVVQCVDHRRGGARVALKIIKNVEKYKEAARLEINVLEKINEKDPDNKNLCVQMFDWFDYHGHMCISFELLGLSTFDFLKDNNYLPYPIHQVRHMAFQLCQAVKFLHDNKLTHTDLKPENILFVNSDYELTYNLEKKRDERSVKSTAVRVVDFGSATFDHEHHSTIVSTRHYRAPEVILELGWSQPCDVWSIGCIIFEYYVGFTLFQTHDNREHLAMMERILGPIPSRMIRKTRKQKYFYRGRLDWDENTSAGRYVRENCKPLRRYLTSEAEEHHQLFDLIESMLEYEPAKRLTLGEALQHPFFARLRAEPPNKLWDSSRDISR
RPS6KA3 KD1 KD2 (human), sequence (P51812 whole entry, looked up): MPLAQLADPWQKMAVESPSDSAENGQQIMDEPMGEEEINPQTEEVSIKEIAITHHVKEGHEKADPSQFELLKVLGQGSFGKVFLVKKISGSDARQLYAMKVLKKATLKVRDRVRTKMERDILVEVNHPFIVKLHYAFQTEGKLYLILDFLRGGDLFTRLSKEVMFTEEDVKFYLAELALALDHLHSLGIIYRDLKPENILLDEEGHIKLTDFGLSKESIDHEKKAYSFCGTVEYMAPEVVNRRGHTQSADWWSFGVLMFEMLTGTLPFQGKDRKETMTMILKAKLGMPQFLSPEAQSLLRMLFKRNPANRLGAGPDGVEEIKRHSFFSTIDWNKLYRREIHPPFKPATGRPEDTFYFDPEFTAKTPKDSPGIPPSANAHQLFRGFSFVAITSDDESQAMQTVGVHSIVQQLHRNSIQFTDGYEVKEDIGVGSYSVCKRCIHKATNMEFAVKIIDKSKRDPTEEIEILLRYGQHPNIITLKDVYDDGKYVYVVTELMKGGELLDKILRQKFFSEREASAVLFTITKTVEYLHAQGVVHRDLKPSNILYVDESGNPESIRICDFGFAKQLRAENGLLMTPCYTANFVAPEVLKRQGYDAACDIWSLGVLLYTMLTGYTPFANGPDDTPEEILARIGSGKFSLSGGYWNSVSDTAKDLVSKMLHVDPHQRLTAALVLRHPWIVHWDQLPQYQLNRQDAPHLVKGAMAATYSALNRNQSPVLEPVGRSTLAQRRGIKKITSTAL
HIPK3 (human), sequence (Q9H422 whole entry, looked up): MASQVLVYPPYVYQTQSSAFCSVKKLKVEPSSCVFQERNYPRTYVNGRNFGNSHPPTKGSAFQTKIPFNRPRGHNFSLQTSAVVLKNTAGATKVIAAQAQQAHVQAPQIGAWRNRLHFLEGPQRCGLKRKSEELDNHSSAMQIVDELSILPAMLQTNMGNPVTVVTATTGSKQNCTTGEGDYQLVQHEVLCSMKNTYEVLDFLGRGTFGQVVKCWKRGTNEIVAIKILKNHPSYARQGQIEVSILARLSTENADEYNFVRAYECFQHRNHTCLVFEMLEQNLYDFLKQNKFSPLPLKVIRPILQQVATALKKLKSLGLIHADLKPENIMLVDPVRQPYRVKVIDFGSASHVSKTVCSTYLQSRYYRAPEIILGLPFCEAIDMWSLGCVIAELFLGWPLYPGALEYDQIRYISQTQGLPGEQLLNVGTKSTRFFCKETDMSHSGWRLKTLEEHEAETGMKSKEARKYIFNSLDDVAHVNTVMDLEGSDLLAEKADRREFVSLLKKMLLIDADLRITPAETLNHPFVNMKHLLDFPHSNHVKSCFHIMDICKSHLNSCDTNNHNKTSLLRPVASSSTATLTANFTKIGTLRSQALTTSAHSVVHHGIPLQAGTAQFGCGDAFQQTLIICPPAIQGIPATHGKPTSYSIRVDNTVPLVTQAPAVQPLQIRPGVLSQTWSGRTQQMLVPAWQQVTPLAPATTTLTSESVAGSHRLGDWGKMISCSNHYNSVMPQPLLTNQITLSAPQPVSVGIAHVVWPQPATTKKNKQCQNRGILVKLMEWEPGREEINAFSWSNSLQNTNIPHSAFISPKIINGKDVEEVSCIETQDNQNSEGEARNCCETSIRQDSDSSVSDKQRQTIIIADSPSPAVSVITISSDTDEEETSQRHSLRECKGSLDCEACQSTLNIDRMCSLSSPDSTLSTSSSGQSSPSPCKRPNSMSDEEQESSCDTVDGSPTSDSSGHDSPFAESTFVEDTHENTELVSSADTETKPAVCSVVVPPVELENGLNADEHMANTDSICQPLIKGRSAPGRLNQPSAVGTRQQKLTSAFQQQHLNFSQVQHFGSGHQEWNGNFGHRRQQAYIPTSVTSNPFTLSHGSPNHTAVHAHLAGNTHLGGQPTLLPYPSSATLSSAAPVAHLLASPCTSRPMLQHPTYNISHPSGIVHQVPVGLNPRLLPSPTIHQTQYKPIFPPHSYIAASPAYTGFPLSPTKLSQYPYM
GCK (human), sequence (Q12851 whole entry, looked up): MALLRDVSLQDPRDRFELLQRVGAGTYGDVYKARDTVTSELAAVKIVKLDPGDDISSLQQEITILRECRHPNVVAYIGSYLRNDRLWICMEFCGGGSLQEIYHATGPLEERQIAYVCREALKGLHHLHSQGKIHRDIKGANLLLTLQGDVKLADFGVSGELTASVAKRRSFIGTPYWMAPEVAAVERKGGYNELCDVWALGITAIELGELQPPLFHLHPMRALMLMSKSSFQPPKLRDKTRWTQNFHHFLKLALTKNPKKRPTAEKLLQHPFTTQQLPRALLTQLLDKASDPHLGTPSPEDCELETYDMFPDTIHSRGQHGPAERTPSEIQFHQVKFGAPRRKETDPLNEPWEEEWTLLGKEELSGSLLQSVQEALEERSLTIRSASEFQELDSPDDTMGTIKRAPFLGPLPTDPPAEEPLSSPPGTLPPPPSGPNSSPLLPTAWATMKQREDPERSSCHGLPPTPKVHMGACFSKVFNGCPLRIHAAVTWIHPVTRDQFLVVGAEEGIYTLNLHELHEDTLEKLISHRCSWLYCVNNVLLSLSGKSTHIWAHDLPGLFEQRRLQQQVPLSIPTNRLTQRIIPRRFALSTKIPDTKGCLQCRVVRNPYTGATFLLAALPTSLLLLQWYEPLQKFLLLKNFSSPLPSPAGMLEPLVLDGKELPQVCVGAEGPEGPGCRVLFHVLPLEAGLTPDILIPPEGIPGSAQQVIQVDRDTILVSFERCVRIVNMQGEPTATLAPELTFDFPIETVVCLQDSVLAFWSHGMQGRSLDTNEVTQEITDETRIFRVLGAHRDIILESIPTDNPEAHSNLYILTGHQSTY

`CCOC(=O)c1ccc(N2NC(=O)/C(=C/c3ccc([N+](=O)[O-])o3)C2=O)cc1` was tested, and the residual activity (AURKA (human); compound 10.0 µM) was 76%, the residual activity (BRSK2 (human); compound 10.0 µM) was 42% and the residual activity (CDK2 CCNA2 (human); compound 10.0 µM) was 110%. For the same compound, the residual activity (CHEK1 (human); compound 10.0 µM) was 164%, the residual activity (CHEK2 (human); compound 10.0 µM) was 92% and the residual activity (CLK2 (human); compound 10.0 µM) was 126%. For the same compound, the residual activity (DAPK1 (human); compound 10.0 µM) was 112%, the residual activity (EEF2K (human); compound 10.0 µM) was 97% and the residual activity (EPHB4 (human); compound 10.0 µM) was 89%. It also gave a residual activity (ERBB4 (human); compound 10.0 µM) of 91%, a residual activity (FLT1 (human); compound 10.0 µM) of 47% and a residual activity (GCK (human); compound 10.0 µM) of 96%. It also gave a residual activity (HIPK1 (human); compound 10.0 µM) of 98%, a residual activity (HIPK3 (human); compound 10.0 µM) of 103% and a residual activity (JAK2 JH1 JH2 (human); compound 10.0 µM) of 17%. It also gave a residual activity (MAPK1 (human); compound 10.0 µM) of 82%, a residual activity (MAPK3 (human); compound 10.0 µM) of 103% and a residual activity (MARK3 (human); compound 10.0 µM) of 84%. The residual activity (MARK4 (human); compound 10.0 µM) was 52%, the residual activity (MST4 (human); compound 10.0 µM) was 87% and the residual activity (NTRK1 (human); compound 10.0 µM) was 104%. The residual activity (PAK6 (human); compound 10.0 µM) was 133%, the residual activity (PLK1 (human); compound 10.0 µM) was 92% and the residual activity (PRKCA (human); compound 10.0 µM) was 96%. It also gave a residual activity (PRKCZ (human); compound 10.0 µM) of 112%, a residual activity (RPS6KA1 KD1 KD2 (human); compound 10.0 µM) of 92% and a residual activity (RPS6KA3 KD1 KD2 (human); compound 10.0 µM) of 37%. For the same compound, the residual activity (RPS6KA5 KD1 KD2 (human); compound 10.0 µM) was 62%, the residual activity [1] was 126% and the residual activity (STK3 (human); compound 10.0 µM) was 122%. It also gave a residual activity (TAOK1 (human); compound 10.0 µM) of 126%.

Work on `Cc1cc(NC(=O)c2cccc(NC(=O)/C=C/CN(C)C)c2)ccc1Nc1nccc(-c2cccnc2)n1` yielded a residual activity (AURKA (human); compound 0.1 µM) of 97%, a residual activity (AURKA (human); compound 1.0 µM) of 91% and a residual activity (BRSK2 (human); compound 0.1 µM) of 87%. The residual activity (BRSK2 (human); compound 1.0 µM) was 77%, the residual activity (CDK2 CCNA2 (human); compound 0.1 µM) was 107% and the residual activity (CDK2 CCNA2 (human); compound 1.0 µM) was 92%. It also gave a residual activity (CHEK1 (human); compound 0.1 µM) of 102%, a residual activity (CHEK1 (human); compound 1.0 µM) of 87% and a residual activity (CHEK2 (human); compound 0.1 µM) of 102%. The residual activity (CHEK2 (human); compound 1.0 µM) was 72%, the residual activity (CLK2 (human); compound 0.1 µM) was 102% and the residual activity (CLK2 (human); compound 1.0 µM) was 88%. It also gave a residual activity (DAPK1 (human); compound 0.1 µM) of 102%, a residual activity (DAPK1 (human); compound 1.0 µM) of 90% and a residual activity (EEF2K (human); compound 0.1 µM) of 98%. For the same compound, the residual activity (EEF2K (human); compound 1.0 µM) was 95%, the residual activity (EPHB4 (human); compound 0.1 µM) was 97% and the residual activity (EPHB4 (human); compound 1.0 µM) was 98%. The residual activity (ERBB4 (human); compound 0.1 µM) was 102%, the residual activity (ERBB4 (human); compound 1.0 µM) was 98% and the residual activity (FLT1 (human); compound 0.1 µM) was 100%. The residual activity (FLT1 (human); compound 1.0 µM) was 53%, the residual activity (GCK (human); compound 0.1 µM) was 98% and the residual activity (GCK (human); compound 1.0 µM) was 73%. It also gave a residual activity (HIPK1 (human); compound 0.1 µM) of 103%, a residual activity (HIPK1 (human); compound 1.0 µM) of 87% and a residual activity (HIPK3 (human); compound 0.1 µM) of 97%. It also gave a residual activity (HIPK3 (human); compound 1.0 µM) of 90%, a residual activity (JAK2 JH1 JH2 (human); compound 0.1 µM) of 100% and a residual activity (JAK2 JH1 JH2 (human); compound 1.0 µM) of 94%. For the same compound, the residual activity (MAP3K5 (human); compound 0.1 µM) was 100%, the residual activity (MAP3K5 (human); compound 1.0 µM) was 91% and the residual activity (MAPK1 (human); compound 0.1 µM) was 110%. For the same compound, the residual activity (MAPK1 (human); compound 1.0 µM) was 100%, the residual activity (MAPK3 (human); compound 0.1 µM) was 103% and the residual activity (MAPK3 (human); compound 1.0 µM) was 99%. For the same compound, the residual activity (MARK3 (human); compound 0.1 µM) was 92%, the residual activity (MARK3 (human); compound 1.0 µM) was 93% and the residual activity (MARK4 (human); compound 0.1 µM) was 101%. The residual activity (MARK4 (human); compound 1.0 µM) was 84%, the residual activity (MST4 (human); compound 0.1 µM) was 96% and the residual activity (MST4 (human); compound 1.0 µM) was 79%. The residual activity (NTRK1 (human); compound 1.0 µM) was 92%, the residual activity (NUAK1 (human); compound 0.1 µM) was 79% and the residual activity (NUAK1 (human); compound 1.0 µM) was 49%. For the same compound, the residual activity (PAK6 (human); compound 0.1 µM) was 110%, the residual activity (PAK6 (human); compound 1.0 µM) was 96% and the residual activity (PLK1 (human); compound 0.1 µM) was 98%. For the same compound, the residual activity (PLK1 (human); compound 1.0 µM) was 94%, the residual activity (PRKCA (human); compound 0.1 µM) was 93% and the residual activity (PRKCA (human); compound 1.0 µM) was 90%. The residual activity (PRKCZ (human); compound 0.1 µM) was 116%, the residual activity (PRKCZ (human); compound 1.0 µM) was 89% and the residual activity (RPS6KA1 KD1 KD2 (human); compound 0.1 µM) was 89%. The residual activity (RPS6KA1 KD1 KD2 (human); compound 1.0 µM) was 81%, the residual activity (RPS6KA3 KD1 KD2 (human); compound 0.1 µM) was 82% and the residual activity (RPS6KA3 KD1 KD2 (human); compound 1.0 µM) was 76%. For the same compound, the residual activity (RPS6KA5 KD1 KD2 (human); compound 0.1 µM) was 91%, the residual activity (RPS6KA5 KD1 KD2 (human); compound 1.0 µM) was 80% and the residual activity (SRC (human); compound 0.1 µM) was 85%. For the same compound, the residual activity (SRC (human); compound 1.0 µM) was 50%, the residual activity (STK3 (human); compound 1.0 µM) was 72% and the residual activity (TAOK1 (human); compound 0.1 µM) was 124%. It also gave a residual activity (TAOK1 (human); compound 1.0 µM) of 97%.
